Data published in patent US20200030263A1, “METHODS AND COMPOSITIONS FOR PROMOTING WOUND HEALING WITH DECREASED SCAR FORMATION AFTER GLAUCOMA FILTRATION SURGERY” (United States Government as Represented by the Department …, priority 2017, published 2020).

Experiments:
[1] = in vivo; cited from earlier work
[2] = tested on: cultured rabbit, equine, canine and human corneal fibroblasts; settings: previous studies from the lab; cited from earlier work
[3] = tested on: rabbit model of glaucoma filtration surgery; assay: Rabbit model of glaucoma filtration surgery (GFS): clinical evaluation of bleb, vascularity, IOP and tolerability; format: in vivo; settings: for bleb appearance (biomicroscopy): day 3, 7, 14 after GFS, compared to flat and scarred blebs in no treatment control; for bleb area compared to untreated controls / bleb length compared to untreated controls: day 3, 7 and 14 after GFS; for bleb area compared to untreated controls: SAHA p<0.05, MMC p<0.01; for bleb length compared to untreated controls: p<0.001; for bleb vascularity score / intraocular pressure: day 7 and day 14 after GFS; for bleb vascularity score: versus no treatment control; for intraocular pressure: versus no-treatment control
Experimental: (§1) Briefly, a rabbit model of glaucoma filtration surgery (GFS) was used. Rabbits underwent GFS received Balanced Salt Solution (BSS) or SAHA (50 μM) or mitomycin C (MMC; 0.04% (w/v)). Clinical scores of intraocular pressure (TOP), bleb vascularity and slit lamp examination were performed. On postoperative day 14, rabbits were sacrificed and the bleb tissues were collected for evaluation of tissue fibrosis with H&E, Masson trichrome (MT), α-smooth muscle actin (α-SMA), and F-actin staining. Further, SAHA-mediated acetylation of histones in corneal fibroblasts and conjunctiva were determined by western blot analysis.
A 10 mM stock solution of SAHA (Cayman Chemical Company, Ann Arbor, Mich., USA) was prepared by dissolving in dimethyl sulfoxide (DMSO) and then further diluted to 50 μM with balanced salt solution (BSS) eye drops (Alcon). For vehicle control, the same volume of DMSO was diluted with BSS. The 0.04% MMC stock solution was prepared in BSS and 0.02% final dose of MMC was given to rabbits. The rabbits were divided into three treatment groups. Groups I rabbits received 100 μl subconjunctival injection of vehicle 30 minutes before the GFS surgery and group II rabbits received 100 μl subconjunctival injection of 50 μM SAHA solution 30 minutes before GFS. Group III rabbits were injected with 100 μl subconjunctival solution of 0.02% MMC 30 minutes before surgery.
Clinical evaluation was performed to check the intraocular pressure (TOP), general appearance and vascularity of the bleb. All these clinical parameters were recorded before the surgery to obtain the baseline values and on days 3, 5, 7, 10 and 14 after surgery. To measure TOP, tonometry was performed using an applanation tonometer (Tono-pen) with animals under topical anesthesia. Bleb's size was graded by measuring its width and length. Bleb vascularity was graded as 0=avascular; 1=normal vascularity; 2=hyperemic; 3=very hyperemic. Anterior chamber inflammation was assessed by slit lamp examination and graded 0=no inflammation; 1=cells present; 2=fibrin formation; 3=hypopyon present.
(§2) The results are expressed as mean±SEM. The data for bleb length, area, vascularity and IOP were analyzed by two way ANOVA and Bonferroni test using GraphPad Prism 6.0 (GraphPad Software, Inc., La Jolla, Calif.) and p<0.05 was considered to be statistical significant. The immunostaining data was analyzed using a t-test.

[4] = tested on: rabbit corneal endothelial cells and keratocytes after −9D PRK; assay: Rabbit PRK model: in vivo safety (specular microscopy, DAPI, TUNEL)
Experimental: Briefly, corneal haze in rabbits was produced with −9.0 diopter PRK. A single application of SAHA (25 μM) or MMC (0.02%) was applied topically immediately after PRK. Effects of the two drugs were analyzed by slit-lamp microscope, specular microscope, TUNEL assay, and immunofluorescence.
(§3) A 10 mM stock solution of SAHA (Cayman Chemical Company, Ann Arbor, Mich., USA) was prepared using dimethyl sulfoxide (DMSO), and diluted to 25 μM with balanced salt solution (BSS) eye drops (Alcon). For vehicle control, the same volume of DMSO was diluted with BSS. The 0.02% Mitomycin C solution was prepared at the Harry S. Truman VA Hospital Pharmacy, Columbia, Mo. using 5 mg/ml powder (Accord Healthcare, Inc., Durham, N.C., USA) diluted with sterile normal saline. This solution was stable for 1 week at room temperature but was used within 48 hours after preparation. After PRK, rabbits were divided into 3 groups: Group-1 received a single topical application of SAHA (25 μM) for 5 minutes (n=15), Group-2 received a single topical application of MMC (0.02%) for 1 minute (n=15) and Group-3 received a single topical application of vehicle for 5 minutes (n=15). Thereafter, eyes were washed profusely with BSS. The contralateral eye served as naive control. All rabbits received clinical eye examination.
Slit-lamp (SL15, Kowa, Japan), stereo (MZ16F, Leica, Switzerland) and specular (NSP-8800, Konan, Japan) microscopes were used to evaluate ocular health, corneal haze, and corneal endothelial cells in anesthetized animals. Grading of clinical corneal haze was done using Fantes scale by three researchers (AS, MW and SG) in a masked manner. High performance digital imaging system (VK2; Kowa Tokyo, Japan) was used for corneal image analysis.
Rabbits from each group were euthanatized 3-days (n=3), 1-month (n=6), and 4-months (n=6) after PRK. Corneas were snap frozen, sectioned ([…]), and stored at −80° C. Immunofluorescence was used to detect myofibroblast marker αSMA using monoclonal antibody (M0851; Dako, Calif.). TUNEL assay (ApopTag, 57165; Billerica, Mass.) detected apoptosis and DAPI-stained nuclei determined cellular density. Sections were viewed and photographed under a fluorescence microscope (Leica, Deerfield, Ill.) equipped with a digital camera system (SpotCam RT KE; Diagnostic Instruments, MI).
Stained proteins in corneal sections were quantified using Image J software in six randomly selected areas. Standard error means were calculated. One-way ANOVA and Wilcoxon rank sum test were used for statistical analysis. The p value <0.05 was considered significant.

[5] = tested on: site of sclerotomy in rabbit eyes after glaucoma filtration surgery; format: in vivo; settings: for DAPI nuclear staining of conjunctival epithelium at site of sclerostomy: rabbit, in vivo
Experimental: as §1
On postoperative day 14, rabbits were humanely euthanized with pentobarbital (150 mg/kg) under general anesthesia. The eyes were enucleated together with the conjunctiva to preserve the bleb and snap frozen in optimal cutting temperature fluid. The tissues were sectioned and stained with hematoxylin and eosin. Masson's trichrome staining was performed to stain collagen. Immunofluorescence staining for f-actin (a marker for activated fibroblasts and myofibroblasts) was performed using Alexa Fluor® 594-conjugated phalloidin (1:40 dilution, A12381, Invitrogen Inc., Carlsbad, Calif.). Immunofluorescence staining for α-smooth muscle actin (αSMA), a marker for myofibroblasts, was performed with mouse monoclonal primary αSMA antibody (1:100 dilution, M0851; Dako, Carpinteria, Calif.). Tissue sections were incubated with 2% bovine serum albumin for 30 minutes at room temperature and then with αSMA monoclonal antibody for 90 minutes. For detection of the primary antibody, the sections were exposed to Alexa 488 goat anti-mouse IgG secondary antibody (1:500 dilution, A11001; Invitrogen Inc.) for 1 hour. The tissue sections at the site of sclerotomy and the sections on every sixth tissue slide on the either side of the sclerotomy were stained for f-actin and αSMA. After completion of immunostaining, tissue sections were mounted in medium containing DAPI (Vectashield; Vector Laboratories, Inc. Burlingame, Calif.), viewed, and photographed under a fluorescence microscope (Leica, Deerfield, Ill.) equipped with a digital camera system (SpotCam RT KE; Diagnostic Instruments, Sterling, Mich.). The stained areas in the imaged slides were quantified using Image J software.
as §2

[6] = tested on: acetylation of Histone H3 and H4 in human corneal fibroblast cells; assay: Western blot of acetylated histones in human corneal fibroblast cells; format: cell-based; settings: SAHA 2.5 μM
Experimental: (§4) Rabbits were received 100 μl subconjunctival injection of 50 μM SAHA. Cell lysates were prepared from human corneal fibroblast cells treated with SAHA (2.5 μM) at 0, 2, 4, 6, 16 and 24 hours. Rabbit conjunctival tissues were harvested at 0, 2, 6 and 24 hour time points. Cell and tissue lysates were analyzed by western blotting using anti-acetyl Histone H3, anti-acetyl histone H4 (Cell Signaling, Beverly, Mass., USA) and (3-actin (Santa Cruz biotechnology Inc., Dallas, Tex., USA) antibodies respectively. All western blots for each protein were used 3 rabbit tissues and repeated at least two times. Digital quantification of western blots was performed using NIH Image J software and Image Studio software Version 5.2

[7] = tested on: corneal haze in rabbits produced with −9.0 diopter PRK; assay: Corneal haze after −9.0 diopter PRK in rabbits: efficacy (slit-lamp haze score, αSMA immunofluorescence); format: in vivo, rabbit; settings: for Haze score: at 4-months after PRK, Fantes scale, single topical SAHA 25 μM 5 min or MMC 0.02% 1 min, BSS 2.7±0.4; for post-PRK corneal haze compared to no-drug treated corneas: single topical application, p<0.001
From the text: Photorefractive keratectomy was used to produce corneal haze in rabbits by performing −9.0 diopter ablation with the Summit Apex excimer laser (Model: SVS APEX Plus ER; Alcon, Ft. Worth, Tex.) as reported previously. Briefly, the rabbits were anesthetized and local anesthesia of the cornea was achieved through the application of topical ophthalmic 0.5% proparacaine hydrochloride (Alcon, Fort Worth, Tex.). A wire lid speculum was placed and corneal epithelium was removed by gentle scraping with surgical Beaver blade #64 (BD Biosciences, Franklin Lakes, N.J.). […] Only one eye of each animal was used for experimentation.
A 10 mM stock solution of SAHA (Cayman Chemical Company, Ann Arbor, Mich., USA) was prepared using dimethyl sulfoxide (DMSO), and diluted to 25 μM with balanced salt solution (BSS) eye drops (Alcon). For vehicle control, the same volume of DMSO was diluted with BSS. […] After PRK, rabbits were divided into 3 groups: Group-1 received a single topical application of SAHA (25 μM) for 5 minutes (n=15), Group-2 received a single topical application of MMC (0.02%) for 1 minute (n=15) and Group-3 received a single topical application of vehicle for 5 minutes (n=15). Thereafter, eyes were washed profusely with BSS. The contralateral eye served as naive control. All rabbits received clinical eye examination.
Rabbits from each group were euthanatized 3-days (n=3), 1-month (n=6), and 4-months (n=6) after PRK. Corneas were snap frozen, sectioned (7 mm), and stored at −80° C. Immunofluorescence was used to detect myofibroblast marker αSMA using monoclonal antibody (M0851; Dako, Calif.). […] Sections were viewed and photographed under a fluorescence microscope (Leica, Deerfield, Ill.) equipped with a digital camera system (SpotCam RT KE; Diagnostic Instruments, MI).

[8] = tested on: acetylation of Histone H3 and H4 in rabbit conjunctiva tissue; assay: Western blot of acetylated histones in rabbit conjunctiva after subconjunctival injection; format: in vivo; settings: 100 μl subconjunctival 50 μM SAHA
Experimental: as §4

[9] = tested on: cultured corneal fibroblasts; settings: 50 μM or higher dose of SAHA; earlier studies; cited from earlier work
[10] = Stability of 0.02% Mitomycin C solution; format: physicochemical; settings: 0.02% solution in sterile normal saline, room temperature
Experimental: as §3

[11] = tested on: human corneal endothelial cells; settings: cited from earlier work
[12] = day 14 after GFS, versus no-treatment control
[13] = prophylactic MMC 0.02%, 10-50 seconds, nonrandomized controlled trial

In the case of `O=C(CCCCCCC(=O)Nc1ccccc1)NO` [SAHA, suberoylanilide hydroxamic acid], the plasma half-life [1] is listed as “short”, the “differentiation of corneal fibroblasts to myofibroblasts” value [2] is listed as “capable of inhibiting differentiation” and the “bleb appearance (biomicroscopy)” value [3] is listed as “transparent and elevated blebs”. The “bleb area compared to untreated controls” value [3] was “significantly higher”, the “bleb length compared to untreated controls” value [3] was “significantly higher” and the bleb vascularity score [3] was “significantly (p<0.01) attenuated”. The intraocular pressure [3] was “lower TOP compared to the no-treatment control eyes but the results were not statistically significant”, the “apoptosis (TUNEL assay)” value ([4]; rabbit, in vivo) was “did not induce apoptosis in any cell type” and the “keratocyte number and density in stroma (DAPI-staining)” value ([4]; rabbit, in vivo) was “did not reduce number or density of keratocytes”. The “Masson trichrome staining: collagen deposits at site of sclerotomy” value [5, 12] was “less collagen deposits”, the “f-actin stained area (activated fibroblasts and myofibroblasts)” value [5, 12] was “significant decrease” and the “αSMA stained area (myofibroblasts)” value [5, 12] was “significant decrease”. The “H&E staining: fibrous deposit at site of sclerotomy” value ([5]; day 14 after GFS, control densely packed with fibrous tissue) was “mild fibrous deposit and a loosely arranged conjunctival tissue”, the “DAPI nuclear staining of conjunctival epithelium at site of sclerostomy” value [5] was “continuous and uniform conjunctival epithelium” and the “time of maximum histone H3 and H4 acetylation” value [6] was 6 h. The “acetylation status of histone H3 and H4” value ([6]; 0, 2, 4, 6, 16 and 24 hours) was “increase the acetylation status of histone H3 and H4”, the Haze score [7] was 0.9±0.1 and the “post-PRK corneal haze compared to no-drug treated corneas” value [7] was “significantly decreased”. For the same compound, the “time of maximum histone H3 and H4 acetylation” value [8] was 6 h, the “acetylation status of histone H3 and H4” value ([8]; 0, 2, 6 and 24 hour) was “increase the acetylation status of histone H3 and H4” and the “cellular viability of cultured corneal fibroblasts” value [9] was “did not decrease cellular viability”.
With `CO[C@@]12[C@H](COC(N)=O)C3=C(C(=O)C(C)=C(N)C3=O)N1C[C@@H]1N[C@@H]12` [MMC, mitomycin C] the stability of solution [10] was 1 week, the “bleb appearance (biomicroscopy)” value [3] was “elevated blebs but these blebs had a thin, avascular and cystic appearance” and the “bleb area compared to untreated controls” value [3] was “significantly higher”. For the same compound, the “bleb length compared to untreated controls” value [3] was “significantly higher”, the bleb vascularity score [3] was “very robust decrease” and the intraocular pressure [3] was “lower TOP compared to the no-treatment control eyes but the results were not statistically significant”. The “bleb vascularity by day 14” value ([3]; day 14 after GFS) was “completely avascular”, the “ocular adverse findings on clinical evaluation” value ([3]; rabbit eyes after GFS, SAHA 50 μM or MMC 0.02% subconjunctival) was “corneal neovascularization and opacity” and the “corneal endothelial cell phenotype and density” value ([4]; 1-month after PRK) was “significantly compromised endothelial cell phenotype and density”. The “apoptosis (TUNEL+ cells in stroma and endothelium)” value ([4]; 1-month and 4-months) was “many TUNEL+ cells in the stroma and endothelium”, the “keratocyte number and density in stroma (DAPI-staining)” value ([4]; 1-month and 4-months post-PRK) was “significant keratocyte loss” and the “corneal endothelial cell phenotype and density” value ([4]; 4-months after PRK) was “still had compromised endothelial cells”. For the same compound, the “apoptosis (TUNEL assay)” value ([4]; corneas collected at 3-days) was “significant apoptosis in epithelial and keratocyte cells”, the “qualitative morphometric parameters or quantitative endothelial cell density” value ([11]; 0.02% MMC topically for 12 seconds and 40 seconds following PRK, other studies) was “did not have a significant effect” and the corneal endothelial cells [11, 13] was “significant loss of corneal endothelial cells”. For the same compound, the “haze formation after PRK” value [11, 13] was “inhibited haze formation”, the “f-actin stained area (activated fibroblasts and myofibroblasts)” value [5, 12] was “very robust decrease” and the “αSMA stained area (myofibroblasts)” value [5, 12] was “very robust decrease”. The “DAPI nuclear staining of conjunctival epithelium at site of sclerostomy” value [5] was “discontinuous and highly sparse DAPI nuclear staining”, the Haze score [7] was 0.85±0.15 and the “post-PRK corneal haze compared to no-drug treated corneas” value [7] was “significantly decreased”.
